Test results taken from US20250332442A1, “ORAL HYGIENE DEVICE AND SYSETM, AND USE METHOD” (CHANGSHA […] IN[…]., LTD., priority 2023, published 2025).

What was measured:
Format in all cases: cell-based
[1] = test system: Enterococcus faecalis ATCC2921; test: photodynamic sterilization experiment with root canal light guide needle device; conditions: red-light beam 630 nm, irradiation 30 s, tip of root canal light guide needle
Experimental: The photodynamic sterilization experiment on Enterococcus faecalis ATCC2921 is carried out using the device provided by the present disclosure and the photosensitizer toluidine blue O, and a red-light beam with a wavelength of 630 nm is selected to irradiate for 30 s.

[2] = test system: Actinobacillus actinomycetemcomitans; test: photodynamic sterilization with periodontal light guide needle device (Embodiment 4); conditions: red light beam 630 nm, irradiation 30 s, tip of periodontal light guide needle
Source text: The device of Embodiment 4 and photosensitizer toluidine blue O are used in cooperation to carry out photodynamic sterilization of Actinobacillus actinomycetemcomitans, and a red light beam with a wavelength of 630 nm is selected to irradiate for 30 s.

Porphyromonas gingivalis [3] = test: photodynamic sterilization with pure flat light guide needle device (Embodiment 8); conditions: red light beam 630 nm, irradiation 30 s, tail end of pure flat light guide needle
Source text: The device of Embodiment 8 and photosensitizer toluidine blue O are used in cooperation to carry out photodynamic sterilization of Porphyromonas gingivalis, and a red light beam with a wavelength of 630 nm is selected to irradiate for 30 s.

Enterococcus faecalis = test: photodynamic sterilization experiment with constant-current source device (Embodiment 12); conditions: red light 630 nm and blue light 430 nm, irradiation 30 seconds, device of Embodiment 12
Source text: (§1) The device of Embodiment 12 and photosensitizer toluidine blue O are used in cooperation to carry out the photodynamic sterilization experiment on Porphyromonas gingivalis and Enterococcus faecalis. A red light beam with a wavelength of 630 nm and a blue light beam with a wavelength of 430 nm are used to irradiate for 30 seconds.

Porphyromonas gingivalis [4] = test: as above; conditions: red light 630 nm and blue light 430 nm, irradiation 30 seconds, device of Embodiment 12
Source text: as §1

Measured: sterilization efficiency

Cc1cc2nc3ccc(=[N+](C)C)cc-3sc2cc1N [toluidine blue O]
99%: [1] | [2] | Porphyromonas gingivalis [3] | Enterococcus faecalis | Porphyromonas gingivalis [4]
